From patent US7229985B2, “Amorphous substance of tricyclic triazolobenzazepine derivative” (Meiji Seika Kaisha, Ltd., priority 2001, dated 2007)
Converted amounts (≈) assume the structure as drawn.

What was measured:
[1] = Absorption Test: oral administration, plasma compound B concentration; format: in vivo, beagles
Experimental: The sample produced in Comparative Example 1 or Example 1 was suspended in a 1 wt % aqueous methylcellulose solution. The suspension was administered orally to beagles (n=6) which had been subjected to fasting overnight. The difference in absorption among the samples was evaluated by comparing the area under the plasma drug concentration-time curve (AUC).
The plasma drug concentration in the collected blood was quantitatively determined according roughly to the following method.
Blood (about 0.7 mL) collected from the cephalic vein was centrifuged (4° C., about 9000×g, 10 min) in the presence of heparin to obtain plasma. Methanol (400 μL) and an internal standard substance solution (sodium salt of 7-methyl-4(5H),10-dioxo-2H-1,2,3-triazolo[4,5-c][1]benzazepine, 100 ng/mL, 100 μL) were added to the plasma (100 μL), and the mixture was stirred and centrifuged (4° C., about 9000×g, 10 min).
The supernatant was evaporated to dryness at room temperature under a nitrogen gas stream, and 150 μL of a mixed solution composed of a 10 mmol/L phosphate buffer (pH 7.0) and a methanol (8:2) was added to the residue for redissolution. The solution was then filtered by a centrifugal filter (Centricut Ultra-Mmini (KURABO INDUSTRIES LTD.), 4° C., about 9000×g, 10 min), and the filtrate was analyzed as a sample by HPLC. […]
Fluorescence detection wavelength: Ex 270 nm, Em 466 nm (GAIN=100, response=standard) […]

[2] = Dissoluvability Test (1): solubility in water or 1 wt % aqueous methylcellulose solution at 37° C.; format: physicochemical
Experimental: Water or a 1 wt % aqueous methylcellulose solution was provided as a test liquid, and solubility of various samples in the test liquid was examined. Each sample in an amount of about 100 mg in terms of compound A was added to 500 mL of the test liquid kept at 37° C., and the mixture was stirred with a paddle at 200 rpm. Sampling was carried out at predetermined time intervals, and the samples were filtered through a membrane filter (Sumplep LCR 13-LG, manufactured by Millipore Corporation). The concentration of compound A in each of the filtrates was analyzed by HPLC.
In Test Example 2, HPLC was carried out under the following measuring conditions.
Detector: Ultraviolet absorptiometer (measuring wavelength: 240 nm)
Column: Inertsil ODS 2 4.6×250 mm in which a stainless tube having an inner diameter of 4.6 mm and a length of 25 cm was packed with a 5-μm octadecylsilyl silica gel for liquid chromatography.
Column temp.: Around 40° C.
Mobile phase: 0.1 wt % ammonium acetate:methanol (45:55)

[3] = Solubility in methylene chloride; format: physicochemical
[4] = Solubility in glycerin, propylene glycol, Macrogol 400 and the like; format: physicochemical
[5] = Oral absorption of pulverized crystal; format: in vivo; conditions: orally administered to dogs
Experimental: In addition, an experiment in which a pulverized crystal of crystalline compound A is prepared according to the description of Japanese Patent Laid-Open No. 185013/1987 disclosing a drug, which has been rendered easily absorbable by pulverizing was carried out. The treated drug is orally administered to experimental animals such as dogs.

[6] = test liquid 1 wt % aqueous methylcellulose solution, 37° C. (FIG. 3)
[7] = test liquid water, 37° C., about 100 mg in 500 mL, paddle 200 rpm (FIG. 2), level reached

| SMILES | plasma compound B concentration over time versus crystalline compound of Comparative Example 1 ([1]; beagles, dose one-eighth of the dose of the crystalline compound) | plasma compound B concentration versus crystalline compound of Comparative Example 1 ([1]; suspension in 1 wt % aqueous methylcellulose, fasted beagles (FIG. 5)) | solubility ([2]; 1 wt % aqueous methylcellulose solution, aqueous with cosolvent or surfactant or cyclodextrin, thermodynamic from solid, in a 1 wt % methylcellulose solution at 37° C.) | time for which concentration of dissolution was maintained ([2]; test liquid 1 wt % aqueous methylcellulose solution, 37° C.) | concentration of dissolution [2, 6] | concentration of dissolution [2, 7] | concentration of dissolution after lowering ([2]; test liquid water, 37° C., value to which the concentration then lowered (FIG. 2)) | solubility in methylene chloride [3] | solubility in glycerin, propylene glycol, Macrogol 400 and the like [4] | improvement in absorption [5] |
| --- | --- | --- | --- | --- | --- | --- | --- | --- | --- | --- |
| COc1cc2[nH]c(=O)c3nn(C(OC(=O)OC(C)C)C(C)C)nc3c(=O)c2cc1OC (stereo not drawn) [Example 1, 2-(1-isopropoxycarbonyloxy-2-methylpropyl)-7,8-dimethoxy-4(5H), 10-dioxo-2H-1,2,3-triazolo[4,5-c][1]benzazepine] | much higher | significantly higher | 15 to 20 µg/mL (≈ 34.7 to 46.2 µM) | 4 h | not less than 18 μg/mL | about 5 μg/mL | about 3 μg/mL | – | – | – |
| COc1cc2[nH]c(=O)c3nn(C(OC(=O)OC(C)C)C(C)C)nc3c(=O)c2cc1OC (stereo not drawn) [Comparative Example 1, 2-(1-Isopropoxycarbonyloxy-2-methylpropyl)-7,8-dimethoxy-4(5H), 10-dioxo-2H-1,2,3-triazolo[4,5-c][1]benzazepine] | – | – | – | – | not more than 1 μg/mL | not more than 1 μg/mL | – | about 1 % by weight | not on such a level that can make crystalline compound A pharmaceutically usable | not more than expected |
